± gives the expanded uncertainty stated by the source.
Test: xn = mol fraction of the nth substance listed
Conditions: Liquid, Vibrating tube method

CC1CCCCC1 [methylcyclohexane] + CCO
mass density [kg/m3]
Conditions | 100 kPa | 5000 kPa | 10000 kPa | 15000 kPa | 20000 kPa | 25000 kPa | 30000 kPa | 35000 kPa | 40000 kPa | 45000 kPa
313.15 K, x2 = 0.5 | – | – | – | – | – | – | – | – | – | 790.2 ± 0.7
313.15 K, x2 = 0.625 | – | – | – | – | – | – | – | – | – | 792.6 ± 0.7
313.15 K, x2 = 0.75 | – | – | – | – | – | – | – | – | – | 795.8 ± 0.6
313.15 K, x2 = 0.875 | – | – | – | – | – | – | – | – | – | 800.4 ± 0.6
323.15 K, x2 = 0 | 742.9 ± 0.3 | 747.7 ± 0.4 | 752.5 ± 0.4 | 756.9 ± 0.5 | 761.1 ± 0.6 | 765.1 ± 0.6 | 769 ± 0.7 | 772.6 ± 0.7 | 776.1 ± 0.8 | 779.5 ± 0.8
323.15 K, x2 = 0.052 | 742 ± 0.3 | 746.9 ± 0.4 | 751.7 ± 0.4 | 756.3 ± 0.5 | 760.5 ± 0.5 | 764.5 ± 0.6 | 768.4 ± 0.6 | 772.1 ± 0.7 | 775.6 ± 0.7 | 779.1 ± 0.8
323.15 K, x2 = 0.125 | 741.9 ± 0.3 | 746.8 ± 0.3 | 751.7 ± 0.4 | 756.2 ± 0.5 | 760.5 ± 0.5 | 764.6 ± 0.6 | 768.5 ± 0.6 | 772.2 ± 0.7 | 775.7 ± 0.7 | 779.2 ± 0.8
323.15 K, x2 = 0.25 | 742.4 ± 0.3 | 747.4 ± 0.3 | 752.3 ± 0.4 | 756.8 ± 0.4 | 761.2 ± 0.5 | 765.3 ± 0.5 | 769.2 ± 0.6 | 772.9 ± 0.6 | 776.5 ± 0.7 | 780 ± 0.7
323.15 K, x2 = 0.375 | 743.4 ± 0.2 | 748.5 ± 0.3 | 753.4 ± 0.4 | 758 ± 0.4 | 762.4 ± 0.5 | 766.5 ± 0.5 | 770.4 ± 0.6 | 774.2 ± 0.6 | 777.8 ± 0.7 | 781.2 ± 0.7
323.15 K, x2 = 0.5 | 745 ± 0.2 | 750.1 ± 0.3 | 755 ± 0.3 | 759.6 ± 0.4 | 764 ± 0.4 | 768.2 ± 0.5 | 772.1 ± 0.5 | 775.9 ± 0.6 | 779.5 ± 0.6 | 783 ± 0.7
323.15 K, x2 = 0.625 | 747.4 ± 0.2 | 752.4 ± 0.3 | 757.4 ± 0.3 | 762 ± 0.4 | 766.4 ± 0.4 | 770.5 ± 0.5 | 774.5 ± 0.5 | 778.2 ± 0.6 | 781.9 ± 0.6 | 785.3 ± 0.7
323.15 K, x2 = 0.75 | 750.7 ± 0.2 | 755.7 ± 0.2 | 760.6 ± 0.3 | 765.2 ± 0.4 | 769.6 ± 0.4 | 773.7 ± 0.5 | 777.7 ± 0.5 | 781.5 ± 0.6 | 785.1 ± 0.6 | 788.6 ± 0.7
323.15 K, x2 = 0.875 | 755.6 ± 0.2 | 760.6 ± 0.2 | 765.5 ± 0.3 | 770.1 ± 0.3 | 774.4 ± 0.4 | 778.5 ± 0.4 | 782.4 ± 0.5 | 786.2 ± 0.5 | 789.8 ± 0.6 | 793.3 ± 0.6
333.15 K, x2 = 0 | 733.9 ± 0.3 | 739 ± 0.4 | 744.1 ± 0.4 | 748.8 ± 0.5 | 753.3 ± 0.6 | 757.5 ± 0.6 | 761.5 ± 0.7 | 765.4 ± 0.7 | 769 ± 0.8 | 772.5 ± 0.8
333.15 K, x2 = 0.052 | 732.8 ± 0.3 | 738.1 ± 0.4 | 743.2 ± 0.4 | 748 ± 0.5 | 752.5 ± 0.5 | 756.8 ± 0.6 | 760.9 ± 0.7 | 764.7 ± 0.7 | 768.5 ± 0.8 | 772 ± 0.8
333.15 K, x2 = 0.125 | 732.4 ± 0.3 | 737.8 ± 0.4 | 742.9 ± 0.4 | 747.8 ± 0.5 | 752.3 ± 0.5 | 756.6 ± 0.6 | 760.7 ± 0.6 | 764.6 ± 0.7 | 768.4 ± 0.7 | 771.9 ± 0.8
333.15 K, x2 = 0.25 | 732.7 ± 0.3 | 738.1 ± 0.3 | 743.3 ± 0.4 | 748.2 ± 0.4 | 752.8 ± 0.5 | 757.1 ± 0.6 | 761.3 ± 0.6 | 765.2 ± 0.7 | 769 ± 0.7 | 772.6 ± 0.8
333.15 K, x2 = 0.375 | 733.7 ± 0.2 | 739.1 ± 0.3 | 744.4 ± 0.4 | 749.3 ± 0.4 | 753.9 ± 0.5 | 758.3 ± 0.5 | 762.4 ± 0.6 | 766.4 ± 0.6 | 770.2 ± 0.7 | 773.8 ± 0.7
333.15 K, x2 = 0.5 | 735.3 ± 0.2 | 740.7 ± 0.3 | 746 ± 0.3 | 750.9 ± 0.4 | 755.6 ± 0.5 | 759.9 ± 0.5 | 764.1 ± 0.6 | 768.1 ± 0.6 | 771.9 ± 0.7 | 775.5 ± 0.7
333.15 K, x2 = 0.625 | 737.6 ± 0.2 | 743 ± 0.3 | 748.3 ± 0.3 | 753.3 ± 0.4 | 757.9 ± 0.4 | 762.3 ± 0.5 | 766.4 ± 0.5 | 770.4 ± 0.6 | 774.2 ± 0.6 | 777.9 ± 0.7
333.15 K, x2 = 0.75 | 741 ± 0.2 | 746.4 ± 0.3 | 751.6 ± 0.3 | 756.6 ± 0.4 | 761.2 ± 0.4 | 765.5 ± 0.5 | 769.7 ± 0.5 | 773.7 ± 0.6 | 777.5 ± 0.6 | 781.1 ± 0.7
333.15 K, x2 = 0.875 | 746 ± 0.2 | 751.4 ± 0.2 | 756.6 ± 0.3 | 761.5 ± 0.4 | 766 ± 0.4 | 770.4 ± 0.5 | 774.5 ± 0.5 | 778.4 ± 0.6 | 782.2 ± 0.6 | 785.9 ± 0.7
343.15 K, x2 = 0 | 724.8 ± 0.3 | 730.4 ± 0.4 | 735.8 ± 0.4 | 740.8 ± 0.5 | 745.6 ± 0.6 | 750 ± 0.6 | 754.2 ± 0.7 | 758.2 ± 0.7 | 762.1 ± 0.8 | 765.7 ± 0.8
343.15 K, x2 = 0.052 | 723.4 ± 0.3 | 729.1 ± 0.4 | 734.6 ± 0.4 | 739.7 ± 0.5 | 744.5 ± 0.6 | 749 ± 0.6 | 753.3 ± 0.7 | 757.4 ± 0.7 | 761.3 ± 0.8 | 765 ± 0.8
343.15 K, x2 = 0.125 | 722.8 ± 0.3 | 728.6 ± 0.4 | 734.1 ± 0.4 | 739.3 ± 0.5 | 744.2 ± 0.5 | 748.7 ± 0.6 | 753 ± 0.7 | 757.1 ± 0.7 | 761 ± 0.8 | 764.8 ± 0.8
343.15 K, x2 = 0.25 | 722.9 ± 0.3 | 728.7 ± 0.3 | 734.3 ± 0.4 | 739.6 ± 0.5 | 744.5 ± 0.5 | 749.1 ± 0.6 | 753.5 ± 0.6 | 757.6 ± 0.7 | 761.5 ± 0.7 | 765.3 ± 0.8
343.15 K, x2 = 0.375 | 723.8 ± 0.2 | 729.6 ± 0.3 | 735.3 ± 0.4 | 740.5 ± 0.4 | 745.5 ± 0.5 | 750.1 ± 0.5 | 754.5 ± 0.6 | 758.6 ± 0.7 | 762.6 ± 0.7 | 766.4 ± 0.8
343.15 K, x2 = 0.5 | 725.3 ± 0.2 | 731.2 ± 0.3 | 736.9 ± 0.4 | 742.1 ± 0.4 | 747.1 ± 0.5 | 751.7 ± 0.5 | 756.1 ± 0.6 | 760.3 ± 0.6 | 764.3 ± 0.7 | 768.1 ± 0.7
343.15 K, x2 = 0.625 | 727.6 ± 0.2 | 733.5 ± 0.3 | 739.2 ± 0.3 | 744.4 ± 0.4 | 749.4 ± 0.4 | 754 ± 0.5 | 758.4 ± 0.6 | 762.6 ± 0.6 | 766.6 ± 0.7 | 770.4 ± 0.7
343.15 K, x2 = 0.75 | 731.1 ± 0.2 | 736.9 ± 0.3 | 742.5 ± 0.3 | 747.8 ± 0.4 | 752.7 ± 0.4 | 757.3 ± 0.5 | 761.7 ± 0.5 | 765.9 ± 0.6 | 769.8 ± 0.6 | 773.6 ± 0.7
343.15 K, x2 = 0.875 | 736.3 ± 0.2 | 742.1 ± 0.3 | 747.6 ± 0.3 | 752.8 ± 0.4 | 757.7 ± 0.4 | 762.3 ± 0.5 | 766.6 ± 0.5 | 770.8 ± 0.6 | 774.7 ± 0.6 | 778.4 ± 0.7
353.15 K, x2 = 0 | 715.7 ± 0.3 | 721.7 ± 0.4 | 727.4 ± 0.5 | 732.8 ± 0.5 | 737.8 ± 0.6 | 742.5 ± 0.6 | 747 ± 0.7 | 751.2 ± 0.8 | 755.2 ± 0.8 | 759 ± 0.9
353.15 K, x2 = 0.052 | – | 720.2 ± 0.4 | 726 ± 0.4 | 731.5 ± 0.5 | 736.6 ± 0.6 | 741.3 ± 0.6 | 745.8 ± 0.7 | 750.1 ± 0.7 | 754.2 ± 0.8 | 758 ± 0.8
353.15 K, x2 = 0.125 | – | 719.3 ± 0.4 | 725.3 ± 0.4 | 730.8 ± 0.5 | 736 ± 0.6 | 740.8 ± 0.6 | 745.3 ± 0.7 | 749.6 ± 0.7 | 753.7 ± 0.8 | 757.7 ± 0.8
353.15 K, x2 = 0.25 | – | 719.2 ± 0.3 | 725.2 ± 0.4 | 730.8 ± 0.5 | 736 ± 0.5 | 740.9 ± 0.6 | 745.5 ± 0.6 | 749.9 ± 0.7 | 754 ± 0.8 | 758 ± 0.8
353.15 K, x2 = 0.375 | – | 719.9 ± 0.3 | 726 ± 0.4 | 731.7 ± 0.4 | 736.9 ± 0.5 | 741.8 ± 0.6 | 746.4 ± 0.6 | 750.8 ± 0.7 | 755 ± 0.7 | 759 ± 0.8
353.15 K, x2 = 0.5 | – | 721.4 ± 0.3 | 727.5 ± 0.4 | 733.1 ± 0.4 | 738.4 ± 0.5 | 743.4 ± 0.5 | 748 ± 0.6 | 752.4 ± 0.6 | 756.6 ± 0.7 | 760.6 ± 0.8
353.15 K, x2 = 0.625 | – | 723.7 ± 0.3 | 729.8 ± 0.3 | 735.4 ± 0.4 | 740.7 ± 0.5 | 745.6 ± 0.5 | 750.3 ± 0.6 | 754.6 ± 0.6 | 758.8 ± 0.7 | 762.8 ± 0.7
353.15 K, x2 = 0.75 | – | 727.1 ± 0.3 | 733.2 ± 0.3 | 738.8 ± 0.4 | 744 ± 0.4 | 748.9 ± 0.5 | 753.6 ± 0.6 | 757.9 ± 0.6 | 762.1 ± 0.7 | 766.1 ± 0.7
353.15 K, x2 = 0.875 | – | 732.5 ± 0.3 | 738.4 ± 0.3 | 743.9 ± 0.4 | 749.1 ± 0.4 | 753.9 ± 0.5 | 758.5 ± 0.5 | 762.9 ± 0.6 | 767 ± 0.6 | 771 ± 0.7
